Laboratory results: US9481670B2, “Triazine compounds” (Sphaera Pharma PTE. Ltd., priority 2011, dated 2016)

What follows are molecules tested against T1, PI3K alpha (Homo sapiens, UniProt P42336) (assay: P110 Alpha TR-FRET Assay (PI3K alpha kinase assay, HTRF Transcreener ADP Assay)). Settings: PI3K (WT).
T1 construct: purchased Millipore Upstate
Assay type: biochemical
Procedure: PI3K alpha kinase assay may be done using HTRF Transcreener ADP Assay (Cisbio).
Composition of the reaction buffer was as follows 50 mM HEPES, pH 7.5, 5 mM MgCl2, 1 mM DTT, 30 μM Na3VO4. PI3 Kinase was procured from Millipore Upstate. […] ATP was used at final concentration of 10 μM. Corning 384 well white plates were used for the assay.
2 μl of diluted enzyme (50 ng), 3 μl of diluted compound and 5 μl of buffer were added, mixed then incubated for 20 minutes with shaking at 400 rpm. 3 μl of substrate (10 μM of ATP and 5 μM PIP2) were added to initiate the reaction. The samples were incubated for 20 min. At the end of the reaction time 10 μl of the Detection mix (5 μl of ADP-D2 and 5 μl of Anti-ADP-Cryptate) was added and the contents were incubated for 1 h. The reaction plate was directly read in an Envision Multilabel Plate Reader.

T1 sequence (P42336 whole entry): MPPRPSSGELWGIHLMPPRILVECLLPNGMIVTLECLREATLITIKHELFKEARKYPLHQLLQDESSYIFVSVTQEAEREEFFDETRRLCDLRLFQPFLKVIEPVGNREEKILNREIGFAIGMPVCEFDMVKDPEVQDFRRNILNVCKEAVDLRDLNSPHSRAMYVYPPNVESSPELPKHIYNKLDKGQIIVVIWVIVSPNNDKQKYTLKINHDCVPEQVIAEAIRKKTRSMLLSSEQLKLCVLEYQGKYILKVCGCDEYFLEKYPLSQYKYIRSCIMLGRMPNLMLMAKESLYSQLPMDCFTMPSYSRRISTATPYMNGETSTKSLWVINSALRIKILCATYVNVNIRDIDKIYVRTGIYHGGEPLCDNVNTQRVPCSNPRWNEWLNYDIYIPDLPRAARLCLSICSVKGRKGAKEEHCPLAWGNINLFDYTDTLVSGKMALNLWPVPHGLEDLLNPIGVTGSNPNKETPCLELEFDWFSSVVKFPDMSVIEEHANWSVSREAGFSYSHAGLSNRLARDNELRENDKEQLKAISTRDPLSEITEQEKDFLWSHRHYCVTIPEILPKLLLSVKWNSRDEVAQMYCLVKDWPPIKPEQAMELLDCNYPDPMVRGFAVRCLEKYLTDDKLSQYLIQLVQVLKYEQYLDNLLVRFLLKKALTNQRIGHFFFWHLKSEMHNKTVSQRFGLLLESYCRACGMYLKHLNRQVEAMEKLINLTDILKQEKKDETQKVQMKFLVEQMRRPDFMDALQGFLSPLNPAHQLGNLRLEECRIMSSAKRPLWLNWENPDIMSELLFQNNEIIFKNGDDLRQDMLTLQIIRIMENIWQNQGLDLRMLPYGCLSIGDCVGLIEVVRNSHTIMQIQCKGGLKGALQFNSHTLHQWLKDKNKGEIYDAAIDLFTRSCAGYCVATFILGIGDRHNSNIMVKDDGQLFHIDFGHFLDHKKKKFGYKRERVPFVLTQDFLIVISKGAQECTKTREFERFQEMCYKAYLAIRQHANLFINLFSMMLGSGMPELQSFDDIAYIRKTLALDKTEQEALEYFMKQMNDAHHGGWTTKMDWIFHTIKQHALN
T1 sequence (P27986 whole entry partner): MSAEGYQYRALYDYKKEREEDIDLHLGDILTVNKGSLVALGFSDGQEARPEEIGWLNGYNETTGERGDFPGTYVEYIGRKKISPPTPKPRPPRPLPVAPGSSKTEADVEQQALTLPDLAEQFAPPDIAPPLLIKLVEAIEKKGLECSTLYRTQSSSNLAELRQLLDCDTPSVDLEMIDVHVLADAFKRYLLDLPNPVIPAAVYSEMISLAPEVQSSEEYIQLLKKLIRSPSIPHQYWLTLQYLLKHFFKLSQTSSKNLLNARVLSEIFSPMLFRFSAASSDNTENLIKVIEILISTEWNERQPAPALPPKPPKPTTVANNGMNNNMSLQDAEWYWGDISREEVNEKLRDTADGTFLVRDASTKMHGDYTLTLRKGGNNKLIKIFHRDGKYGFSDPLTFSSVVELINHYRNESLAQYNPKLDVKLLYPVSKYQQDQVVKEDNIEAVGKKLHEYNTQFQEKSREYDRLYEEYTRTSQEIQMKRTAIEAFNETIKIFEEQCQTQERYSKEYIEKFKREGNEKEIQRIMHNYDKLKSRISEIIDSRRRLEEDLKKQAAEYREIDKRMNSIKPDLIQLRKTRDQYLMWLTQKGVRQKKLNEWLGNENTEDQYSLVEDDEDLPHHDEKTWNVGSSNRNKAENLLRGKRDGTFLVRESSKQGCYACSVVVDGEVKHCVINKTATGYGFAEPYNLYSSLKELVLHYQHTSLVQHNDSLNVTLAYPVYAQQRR

IC50 [µM]	Structure (SMILES)
< 5	CN(C)C(=O)c1ccc(Oc2nc(-c3ccc(N)nc3)nc(N3CCCOCC3)n2)cc1 [Compound 1014, 4-21-{[4-1-(6-9-aminopyridin-3-yl)-6-5-(1,4-oxazepan-4-yl)-1,3,5-triazin-2-yl]oxy}-N,N-dimethylbenzamide]
< 5	CN(C)C(=O)c1cccc(Oc2nc(-c3ccc(N)nc3)nc(N3CCOCC3)n2)c1 [Compound 1015, 3-20-{[4-1-(6-11-aminopyridin-3-yl)-6-5-(morpholin-4-yl)-1,3,5-triazin-2-yl]oxy}-N,N-dimethylbenzamide]
< 5	CN(C)C(=O)c1ccc(Oc2nc(-c3cccc4[nH]ncc34)nc(-n3ccnc3)n2)cc1 [Compound 1016, 4-9-{[4-5-(1H-imidazol-1-yl)-6-1-(1H-indazol-4-yl)-1,3,5-triazin-2-yl]oxy}-N,N-dimethylbenzamide]
< 5	CN(C)C(=O)Cc1ccc(Oc2nc(-c3ccc(N)nc3)nc(N3CCOCC3)n2)cc1 [Compound 1017, 2-20-(4-9-{[4-1-(6-12-aminopyridin-3-yl)-6-5-(morpholin-4-yl)-1,3,5-triazin-2-yl]oxy}phenyl)-N,N-dimethylacetamide]
< 5	Cc1cc(-c2nc(Oc3ccc(C(=O)N(C)C)cc3)nc(N3CCOCC3)n2)cnc1N [Compound 1018, 4-14-{[4-1-(6-27-amino-5-26-methylpyridin-3-yl)-6-5-(morpholin-4-yl)-1,3,5-triazin-2-yl]oxy}-N,N-dimethylbenzamide]
< 5	CN(C)C(=O)c1ccc(Oc2nc(-c3ccc(NN)nc3)nc(N3CCOCC3)n2)cc1 [Compound 1019, 4-14-{[4-1-(6-26-hydrazinylpyridin-3-yl)-6-5-(morpholin-4-yl)-1,3,5-triazin-2-yl]oxy}-N,N-dimethylbenzamide]
< 5	Cc1nc(N)ccc1-c1nc(Oc2ccc(C(=O)N(C)C)cc2)nc(N2CCOCC2)n1 [Compound 1020, 4-14-{[4-1-(6-17-amino-2-19-methylpyridin-3-yl)-6-5-(morpholin-4-yl)-1,3,5-triazin-2-yl]oxy}-N,N-dimethylbenzamide]
< 5	Cc1cc(Oc2nc(-c3ccc(N)nc3)nc(N3CCOCC3)n2)ccc1C(=O)N(C)C [Compound 1021, 4-20-{[4-1-(6-16-aminopyridin-3-yl)-6-5-(morpholin-4-yl)-1,3,5-triazin-2-yl]oxy}-N,N,2-trimethylbenzamide]
> 5	Cc1cc(N)ncc1-c1nc(Oc2ccc(C(=O)N(C)C)cc2)nc(N2CCOCC2)n1 [Compound 1022, 4-14-{[4-1-(6-17-amino-4-15-methylpyridin-3-yl)-6-5-(morpholin-4-yl)-1,3,5-triazin-2-yl]ioxy}-N,N-dimethylbenzamide]
< 5	CS(=O)(=O)N1CCC(COc2nc(-c3ccc(N)nc3)nc(N3CCOCC3)n2)CC1 [Compound 1023, 5-(4-((1-(methylsulfonyl)piperidin-4-yl)methoxy)-6-morpholino-1,3,5-triazin-2-yl)pyridin-2-amine]
> 5	CN(C)C(=O)c1ccc(Oc2nc(-c3ccncc3)nc(-c3cccc4[nH]ncc34)n2)cc1 [Compound 1024, 4-9-{[4-1-(1H-indazol-4-yl)-6-5-(pyridin-4-yl)-1,3,5-triazin-2-yl]oxy}-N,N-dimethylbenzamide]
< 5	CN(C)C(=O)N1CC[C@H](COc2nc(-c3ccc(N)nc3)nc(N3CCOCC3)n2)C1 [Compound 1025, 3-21-({[4-3-(6-16-aminopyridin-3-yl)-6-5-(morpholin-4-yl)-1,3,5-triazin-2-yl]oxy}methyl)-N,N-dimethylpyrrolidine-1-carboxamide]
< 5	CN(C)C(=O)N1CC[C@H](Oc2nc(-c3ccc(N)nc3)nc(N3CCOCC3)n2)C1 [Compound 1026, 3-19-{[4-3-(6-16-aminopyridin-3-yl)-6-5-(morpholin-4-yl)-1,3,5-triazin-2-yl]oxy}-N,N-dimethylpyrrolidine-1-carboxamide]
< 5	CN(C)C(=O)c1ccc(Oc2nc(-c3ccc(N)nc3)nc(N3CCOCC3)n2)cc1 [Compound 1027, 4-14-{[4-1-(6-17-aminopyridin-3-yl)-6-5-(morpholin-4-yl)-1,3,5-triazin-2-yl]oxy}-N,N-dimethylbenzamide]
< 5	CN(C)C(=O)N1CCC(Oc2nc(-c3ccc(N)nc3)nc(N3CCOCC3)n2)CC1 [Compound 1028, 4-20-{[4-1-(6-11-aminopyridin-3-yl)-6-5-(morpholin-4-yl)-1,3,5-triazin-2-yl]oxy}-N,N-dimethylpiperidine-1-carboxamide]
< 5	CN(C)C(=O)c1ccc(Oc2nc(-c3ccc(F)nc3)nc(N3CCOCC3)n2)cc1 [Compound 1029, 4-14-{[4-1-(6-17-fluoropyridin-3-yl)-6-5-(morpholin-4-yl)-1,3,5-triazin-2-yl]oxy}-N,N-dimethylbenzamide]
< 5	CN(C)C(=O)c1ccc(Oc2nc(-c3cccc(O)c3)nc(N3CCOCC3)n2)cc1 [Compound 1030, 4-14-{[4-1-(3-21-hydroxyphenyl)-6-5-(morpholin-4-yl)-1,3,5-triazin-2-yl]oxy}-N,N-dimethylbenzamide]
< 5	CN(C)C(=O)c1ccc(Oc2nc(-c3ccc(N)cc3)nc(N3CCOCC3)n2)cc1 [Compound 1031, 4-14-{[4-1-(4-17-aminophenyl)-6-5-(morpholin-4-yl)-1,3,5-triazin-2-yl]oxy}-N,N-dimethylbenzamide]
< 5	CN(C)C(=O)c1ccc(Oc2nc(-c3cncc(N)c3)nc(N3CCOCC3)n2)cc1 [Compound 1032, 4-14-{[4-1-(5-26-aminopyridin-3-yl)-6-5-(morpholin-4-yl)-1,3,5-triazin-2-yl]oxy}-N,N-dimethylbenzamide]
> 5	CN(C)C(=O)c1ccc(Oc2nc(-c3cccc4c(=O)[nH]ccc34)nc(N3CCOCC3)n2)cc1 [Compound 1033, N,N-dimethyl-4-14-{[4-5-(morpholin-4-yl)-6-1-(1-30-oxo-1,2-dihydroisoquinolin-5-yl)-1,3,5-triazin-2-yl]oxy}benzamide]
> 5	CN(C)C(=O)c1ccc(Oc2nc(-c3cccc4[nH]c(=O)[nH]c34)nc(N3CCOCC3)n2)cc1 [Compound 1034, N,N-dimethyl-4-14-{[4-5-(morpholin-4-yl)-6-1-(2-21-oxo-2,3-dihydro-1H-1,3-benzodiazol-4-yl)-1,3,5-triazin-2-yl]oxy}benzamide]
< 5	CN(C)C(=O)[C@H]1CC[C@H](Oc2nc(-c3ccc(N)nc3)nc(N3CCOCC3)n2)CC1 [Compound 1035, (1r,4r)-4-9-{[4-1-(6-12-aminopyridin-3-yl)-6-5-(morpholin-4-yl)-1,3,5-triazin-2-yl]oxy}-N,N-dimethylcyclohexane-1-carboxamide]
< 5	CN(C)C(=O)c1ccc(Oc2nc(-c3ccnc(N)c3)nc(N3CCOCC3)n2)cc1 [Compound 1036, 4-14-{[4-1-(2-26-aminopyridin-4-yl)-6-5-(morpholin-4-yl)-1,3,5-triazin-2-yl]oxy}-N,N-dimethylbenzamide]
< 5	Nc1ccc(-c2nc(SCc3ccccc3)nc(N3CCOCC3)n2)cn1 [Compound 1037, 5-(4-(benzylthio)-6-morpholino-1,3,5-triazin-2-yl)pyridin-2-amine]
> 5	CN(C)C(=O)c1ccc(Oc2nc(-c3cccc4[nH]ncc34)nc(N3CCNC(=O)CC3)n2)cc1 [Compound 1038, 4-7-{[4-5-(1H-indazol-4-yl)-6-3-(5-31-oxo-1,4-diazepan-1-yl)-1,3,5-triazin-2-yl]oxy}-N,N-dimethylbenzamide]
